Structures can show the parent of a compound that is named as a salt.
Target: mouse TAAR1 (Mus musculus (Mouse), UniProt Q923Y8)
Assay: Radioligand binding assay on mouse TAAR1
Conditions: mouse TAAR1, HEK-293 membranes; first value of mouse/rat pair
Experimental: For the construction of expression plasmids the coding sequences of human, rat and mouse TAAR 1 were amplified from genomic DNA essentially as described by Lindemann et al.. […] PCR products were subcloned into the pIRESneo2 vector (BD Clontech, Palo Alto, Calif.), and expression vectors were sequence verified before introduction in cell lines.
HEK293 cells (ATCC #CRL-1573) were cultured essentially as described by Lindemann et al. (2005). […] After a culture period of about 10 d clones were isolated, expanded and tested for responsiveness to trace amines (all compounds purchased from Sigma) with the cAMP Biotrak Enzyme immunoassay (EIA) System (Amersham) following the non-acetylation EIA procedure provided by the manufacturer.
Radioligand Binding Assay on Mouse TAAR1
Membrane Preparation and Radioligand Binding.
HEK-293 cells stably expressing mouse TAAR1 were maintained at 37° C. and 5% CO2 in DMEM high glucose medium, containing fetal calf serum (10%, heat inactivated for 30 min at 56° C.), penicillin/streptomycin (1%), and 375 μg/ml geneticin (Gibco). Cells were released from culture flasks using trypsin/EDTA, harvested, washed twice with ice-cold PBS (without Ca^2+ and Mg^2+), pelleted at 1′000 rpm for 5 min at 4° C., frozen and stored at −80° C. […] With each new membrane batch the dissociation constant (Kd) was determined via a saturation curve. […]

mouse TAAR1, sequence (Q923Y8 whole entry): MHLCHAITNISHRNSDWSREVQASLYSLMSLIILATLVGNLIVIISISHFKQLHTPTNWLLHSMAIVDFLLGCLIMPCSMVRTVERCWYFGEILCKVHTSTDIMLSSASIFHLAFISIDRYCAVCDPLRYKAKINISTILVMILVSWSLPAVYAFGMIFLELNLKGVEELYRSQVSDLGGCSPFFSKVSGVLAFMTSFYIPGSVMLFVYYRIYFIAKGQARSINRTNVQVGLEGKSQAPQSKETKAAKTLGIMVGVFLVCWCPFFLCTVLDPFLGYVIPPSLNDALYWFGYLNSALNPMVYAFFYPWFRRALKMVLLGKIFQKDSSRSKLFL

Ki: 32 µM
Compound: O=C(Nc1ccccc1)Nc1ccc(C2CCNC2)cc1 (racemic) [Example 6, (RS)-1-Phenyl-3-(4-pyrrolidin-3-yl-phenyl)-urea hydrochloride]
